Measured values published in patent US20070265164A1, “Active Substances for Increasing Pathogenic Defense in Plants and Methods for the Detection Thereof” (Bayer Cropscience GmbH, priority 2004, published 2007).

What was measured:
[1] = test system: Contig2992_s_at, Chitinase (EC 3.2.1.14); assay: GEP, barley DNA chip, probe set 5.2; assay type: in vivo; parameters: fold induction: dose or concentration left out as unconfirmed; conditions: for fold induction / fold induction at 150 g/ha: Hordeum vulgare, topical, read-out: Expression value, 5.2 Contig2992_s_at; for fold induction: rates of Table 1 (S7 500); for fold induction at 150 g/ha: 6 h
Procedure: (§1) Barley plants (cv. Baronesse) were grown in compost-filled pots (diameter: 10 cm) for 10 days in a controlled-environment cabinet under defined light, humidity and temperature conditions (white light, 70% atmospheric humidity, 24° C.). At the time of spray application, the seedlings were approximately 15 cm in size. The test substances selected in this example were molecules which differ markedly in their structure and which have a well documented pronounced safener effect, and other molecules which are known from the literature to have an effect on plant stress and pathogen tolerance (Table 1). The substances were prepared as stock solutions in DMSO (dimethyl sulfoxide) at c=10 mg/ml). This was used for preparing dilutions in water supplemented with 0.2% Agrotin (comprises polyvinyl alcohol, silicones, polysaccharides and pH regulators, manufacturer: Bayer CropScience AG, Monheim, Germany), as wetter, to give the application rates shown in the table. The amount of liquid for the spray application was 800 μl per pot, corresponding to 800 l/ha. For each 800 μl of spray mixture, 16 μl of EC premix: diacetone alcohol=1:6 were additionally added as formulation auxiliaries. The substances listed in Table 1 were applied to the leaves by means of a pneumatic spray pistol. Each substance was sprayed as 2 dosages, and all experiments were carried out as replicates (2 pots per substance). Sprayings with blank formulation without active ingredient were carried out as controls. After 6 hours, the leaves were harvested, frozen in liquid nitrogen and stored at −80° C. until further use. The labeled RNA probes for the DNA chip hybridization were prepared as described in the protocols (Expression Analysis, Technical Manual) from Affymetrix (Affymetrix Inc., 3380 Central Expressway, Santa Clara, Calif., USA). First, total RNA was isolated from in each case 500 mg of the harvested leaves. In each case 10 μg of total RNA was used for the first-strand and second-strand cDNA synthesis. The cDNA was amplified with T7 polymerase and simultaneously labeled with biotin-UTP. In each case, 20 μg of this biotinylated cDNA was employed for the hybridization of the barley genome array (Gene Chip Barleyl, order No.: 511012) from Affymetrix. This DNA microarray comprises DNA sequences of 22 840 genes which are composed of a total of 400 000 EST sequences. Thereafter, the DNA microarrays were washed in the Affymetrix Fluidics Station, stained with streptavidin/phycoerythrin (Molecular Probes, P/N S-866) and scanned with the matching Agilent Laser Scanner (Agilent Gene Array Scanner). The fluorescent data obtained were analyzed with the software Microarray Suite 5 from Affymetrix. After the quality had been checked, all DNA chip analyses were stored in a database. To determine the relative expression values for genes (induction factors, repression factors), test and control chips were compared with each other, and the scoring function set by the Affymetrix software was used as the basis. The 2 biological replications of one experiment were compared in each case with 2 control chips (blank formulation), and the 4 expression values obtained for each gene were used for calculating the median. These medians are shown in the results tables as induction factors. Similarity comparisons of expression profiles from different experiments and cluster analyses were carried out using the software GeneMaths 1.5 from Applied Maths (Applied Maths, Keistraat 120, 9830 Sint-Martens-Latem, Belgium).
(§2) Gene groups from specific metabolic pathways and signal transduction chains were put together by key word search in the annotations, of the genes, which were also provided by Affymetrix, and by Blast analyses (homology comparisons) of the DNA target sequences, i.e. of the positive sequence (identified on the basis of a modified expression profile) identified on the DNA chip, using gene sequences from other organisms, preferably plant organisms, with characterized functions. […]

[2] = test system: Contig2631_at, Lipase-like Protein (jasmonic acid biosynthesis gene); assay: Gene expression profiling (GEP), barley DNA chip, probe set 1.1; assay type: in vivo; parameters: fold induction: dose or concentration left out as unconfirmed; conditions: for fold induction / fold induction at 150 g/ha: Hordeum vulgare; for fold induction: rates of Table 1 (S7 500); for fold induction at 150 g/ha: 6 h, read-out: Expression value, 1.1 Contig2631_at
Procedure: as §1, §2

[3] = test system: Contig3096_s_at, Allene oxide synthase; assay: GEP, barley DNA chip, probe set 1.16; assay type: in vivo; parameters: fold induction: dose or concentration left out as unconfirmed; conditions: for fold induction / fold induction at 150 g/ha: Hordeum vulgare, topical, read-out: Expression value, 1.16 Contig3096_s_at; for fold induction: rates of Table 1 (S7 500); for fold induction at 150 g/ha: 6 h
Procedure: as §1, §2

[4] = test system: Contig5369_at, Pathogen-related protein; assay: GEP, barley DNA chip, probe set 4.2; assay type: in vivo; parameters: fold induction: dose or concentration left out as unconfirmed; conditions: for fold induction / fold induction at 150 g/ha: Hordeum vulgare, topical, read-out: Expression value, 4.2 Contig5369_at; for fold induction: rates of Table 1 (S7 500); for fold induction at 150 g/ha: 6 h
Procedure: as §1, §2

[5] = test system: Contig2088_s_at, Bowman-Birk type trypsin inhibitor; assay: GEP, barley DNA chip, probe set 2.1; assay type: in vivo; parameters: fold induction: dose or concentration left out as unconfirmed; conditions: for fold induction / fold induction at 150 g/ha: Hordeum vulgare, topical, read-out: Expression value, 2.1 Contig2088_s_at; for fold induction: rates of Table 1 (S7 500); for fold induction at 150 g/ha: 6 h
Procedure: as §1, §2

Jasmonate (JA) [6] = assay: Jasmonate (JA) concentration in leaves of treated plants, GC-MS/MS; assay type: in vivo, barley
Procedure: Barley plants (cv. Baronesse) were grown under the conditions described in Example 1 and treated by spray application with safener isoxadifen-ethyl (S 3). The application rates were chosen as follows:
(1) 30 [g a.i./ha]; (2) 150 [g a.i./ha]; (3) blank formulation (no active ingredient)
The plant leaves were harvested at different points in time after the treatment (h=hours), viz. after 1 h, 2 h, 4 h, 6 h, 12 h, 24 h and 48 h. All samples were designed in each case as replications of 3 pots.
The octadecanoates and jasmonates were processed from the leaves following a procedure described in the literature (Müller A, Düchting P and Weiler E W (2002)), A multiplex GC-MS/MS technique for the sensitive and quantitative single-run analysis of acidic phytohormones and related compounds, and its application to Arabidopsis thaliana. Planta, 216, 44-56).
300 mg of plant material were extracted for each measuring point.
50 pmol [^13C]2-JA and 100 pmol [17,17,17,18,18-^2H]-cis-OPDA were applied as internal standards. The extracts were purified via aminopropyl anion-exchange chromatography in miniature solid-phase exchanger columns which had been prepared in-house.
The results are shown in Tables 3a to 3d, the values shown being in each case means of the 3 applications.

Jasmonate (JA) [7] = assay: as above; assay type: in vivo, barley; conditions: 0 hours
[8] = barley leaves 6 h after spray application, rates of Table 1 (150 g a.i./ha, S7 500), median induction factor vs control
[9] = barley leaves 6 h after spray application, median induction factor vs control

| SMILES | fold induction [1, 9] | fold induction [2, 9] | fold induction [3, 9] | fold induction [4, 9] | fold induction [5, 9] | also measured |
| --- | --- | --- | --- | --- | --- | --- |
| O=C(NO)c1ccccc1O [S7, Salicyl hydroxamate] |  |  |  |  |  | Expression value, 5.2 Contig2992_s_at [1, 8]: 1.00 x times; Expression value, 1.1 Contig2631_at [2, 8]: 1.00 x times; Expression value, 1.16 Contig3096_s_at [3, 8]: 2.06 x times; Expression value, 4.2 Contig5369_at [4, 8]: 1.00 x times; Expression value, 2.1 Contig2088_s_at [5, 8]: 4.79 x times |
| CCOC(=O)C(Oc1ccc(Cl)c2cccnc12)C(=O)OCC [S5] | 3.12 | 1 | 1 | 1 | 1 |  |
| O=C(O)c1cc(Cl)nc(Cl)c1 [S9] |  |  |  |  |  | fold induction at 150 g/ha [1]: 2.14; fold induction at 150 g/ha [2]: 1; fold induction at 150 g/ha [3]: 1; fold induction at 150 g/ha [4]: 1; fold induction at 150 g/ha [5]: 2.36 |
| CCCCCC(C)OC(=O)COc1ccc(Cl)c2cccnc12 (centres unmarked) [S4, Cloquintocet-mexyl] | 1 | 1 | 1 | 1 | 1 |  |
| O=C(O)C1=NN(c2ccc(Cl)cc2Cl)C(c2ccc(F)cc2)C1 (centres unmarked) [S2] | 1 | 1 | 1 | 1 | 1 |  |
| CSC(=O)c1cccc2nnsc12 [S8, Acibenzolar-S-methyl] | 1 | 1 | 2.68 | 1 | 7.36 |  |
| COC(=O)C1=NN(c2ccc(Cl)cc2Cl)C(C)(C(=O)OC)C1 (centres unmarked) [S1, Mefenpyr-dimethyl] | 6.5 | 1 | 1 | 2.35 | 1 |  |
| O=C(O)c1cc(Cl)cc(Cl)c1O [S10] | 1 | 1 | 1 | 1 | 2.41 |  |
| CCOC(=O)C1=NOC(c2ccccc2)(c2ccccc2)C1 [S3, Isoxadifen-ethyl] |  |  |  |  |  | fold induction at 150 g/ha [1]: 2.19; fold induction at 150 g/ha [2]: 97.7; fold induction at 150 g/ha [3]: 1; fold induction at 150 g/ha [4]: 4.76; fold induction at 150 g/ha [5]: 4.26; Jasmonate (JA) concentration (Jasmonate (JA) [6]; 30 g a.i/ha, 1 hour): 600 pmol/g leaf tissue; Jasmonate (JA) concentration (Jasmonate (JA) [6]; 30 g a.i/ha, 2 hours): 320 pmol/g leaf tissue; Jasmonate (JA) concentration (Jasmonate (JA) [6]; 30 g a.i/ha, 4 hours): 790 pmol/g leaf tissue; Jasmonate (JA) concentration (Jasmonate (JA) [6]; 30 g a.i/ha, 6 hours): 620 pmol/g leaf tissue; Jasmonate (JA) concentration (Jasmonate (JA) [6]; 150 g a.i./ha, 1 hour): 290 pmol/g leaf tissue; Jasmonate (JA) concentration (Jasmonate (JA) [6]; 150 g a.i./ha, 2 hours): 280 pmol/g leaf tissue; Jasmonate (JA) concentration (Jasmonate (JA) [6]; 150 g a.i./ha, 4 hours): 270 pmol/g leaf tissue; Jasmonate (JA) concentration (Jasmonate (JA) [6]; 150 g a.i./ha, 6 hours): 275 pmol/g leaf tissue; Jasmonate (JA) concentration (Jasmonate (JA) [6]; 150 g a.i./ha, 12 hours): 155 pmol/g leaf tissue; Jasmonate (JA) concentration (Jasmonate (JA) [6]; 150 g a.i./ha, 24 hours): 265 pmol/g leaf tissue; Jasmonate (JA) concentration (Jasmonate (JA) [6]; 150 g a.i./ha, 48 hours): 320 pmol/g leaf tissue; Increase in JA concentration relative to blank formulation samples (Jasmonate (JA) [6]; maximum over rates and times): ≤ 5 times; Jasmonate (JA) concentrations, range over the experiment (Jasmonate (JA) [6]; summary of Tables 3c, 3d, all rates and times): 70-800 pmol/g leaf tissue; Jasmonate (JA) concentration (Jasmonate (JA) [7]; 30 g a.i/ha): 140 pmol/g leaf tissue; Jasmonate (JA) concentration (Jasmonate (JA) [7]; 150 g a.i./ha): 140 pmol/g leaf tissue |
| NC(=O)c1ccc(C(F)(F)F)nc1O [S6] | 2.27 | 1 | 1 | 1 | 1 |  |
